Consider three compounds from paper PMC10831786 (Virus Research, 2024).

Data set [1] addresses protein synthesis in rabbit reticulocyte lysate. Briefly: Inhibition of protein synthesis in rabbit reticulocyte lysates (luciferase mRNA translation). Type of data set: biochemical. On the procedure: The TnT® Quick Coupled Transcription/Translation System from Promega (WI, USA; L1170) was used to evaluate inhibitory effects of ipecac alkaloids and cycloheximide on protein synthesis. Assay conditions were employed as recommended by the manufacturer. Briefly, reactions (20 μl) contained 80 % TNT Quick master mix, 20 µM methionine, 40 ng/µL luciferase RNA (Promega; L4561), and test chemicals. Samples were incubated at 30 °C for 90 min and diluted 10-fold with PBS. An aliquot (2 μl) was mixed with 20 μl of luciferase assay reagent (Promega; E1500) and luminescence was measured with a Turner Designs luminometer (model TD-20/20).

In data set [2] the test system is protein synthesis in Vero E6 cells. Put plainly: Puromycin pulse labeling, protein synthesis in cultured Vero E6 cells. The format is cell-based, African green monkey. The note with it: for IC50: Chlorocebus sabaeus. As to the method:
Vero E6 cells were seeded at 30,000 cells per cm^2 in 6-well plates. […] Control experiments were conducted in medium alone and medium containing cycloheximide or DMSO. After 12 min, cells were washed with 37° PBS and then allowed to recover in drug-free 2 % FBS-EMEM for 30 min. Cell pellets, collected by trypsinization and centrifugation for 5 min at 5 000 rpm at 4 °C, were re-suspended in ice-cold PBS and centrifugation was repeated. Collected cells were stored at −80 °C.
Antibodies used were anti-puromycin monoclonal (TFS; MABE34), goat anti-mouse-HRP (TFS, Invitrogen; G21040), rabbit anti-β-actin (Cell Signaling, 4967S, lot 9) and HRP-conjugated goat-anti-rabbit (Cell Signaling, 7074S, lot 27). Protein extract and immunoblotting methods were done by standard methods reported here as Supplementary Information.
Vero E6 cells were seeded at 30,000 cells per cm^2 in 6-well plates. […] Puromycin labelling protocols have been well established by other laboratories and a general review of the methods has been published^79. Control experiments were conducted in medium alone and medium containing cycloheximide or DMSO. Following incubation with puromycin for 12 min, the medium was quickly removed and cells were washed with warm PBS and then allowed to recover in drug-free 2% FBS-EMEM for 30 min. Cell pellets, collected by trypsinization and centrifugation for 5 min at 5 000 rpm at 4°C, were re-suspended in ice-cold PBS and the centrifugation was repeated. Collected cells were stored at -80°C until subjected to the protein preparation as noted below.
Defrosted cell pellets were re-suspended in 120 µl of RIPA (radio-immunoprecipitation) buffer (Sigma; R0278) containing 7 µl of protease inhibitors (Sigma; P8340). Samples were incubated on ice for 40 min with occasional gentle mixing. Cell debris was removed by a 20 min centrifugation at 16,000 g at 4°C and supernatants were stored at -80°C. Protein was measured by the Pierce^TM bicinchoninic acid (BCA) assay (Thermo Fisher Scientific [TFS], MA, USA; 23250), using bovine serum albumin as a standard, according to protocols recommended by the manufacturer.
For immunoblotting, 10 µg of protein was combined with Laemmli buffer containing 10% β-mercaptoethanol, heated at 95°C for 5 min and loaded on 4-20% Mini-PROTEAN® TGX™ precast protein gels. Samples were resolved by electrophoresis in Tris-Gly-SDS buffer and transferred to nitrocellulose membranes. Transfer was conducted in Tris-Gly buffer containing 20% methanol at 4-6 V/cm^2 for one hour. Membranes were blocked in 10 mM sodium phosphate buffer containing 150 mM NaCl (pH 7.8), 5% milk and 0.1% TWEEN20 (PBST) at room temperature for at least one hour, and then incubated overnight with primary anti-puromycin antibodies (TFS; MABE343 mouse monoclonal antibodies clone 12D10; 1:12,500) at 4°C. Membranes were washed for five minutes three times in PBST and incubated with secondary goat anti-mouse horseradish peroxidase (HRP) -conjugated antibodies (TFS, Invitrogen; G21040; 1:25,000) for 90 min. After three more rounds of washing as above, membranes were incubated with an HRP substrate (TFS; 34077) for one minute and chemoluminescence was visualized by exposing membranes to film for 1, 2, 5, 10 and 30 min.
For β-actin staining, the same membranes used for puromycin immunostaining were washed four times, 5 min each, in 20 mM Tris-buffered saline containing 500 mM sodium chloride (pH 7.5) and 0.1% TWEEN20 (TBST) and stripped by two rounds of 20 and 10 min washes at 50°C in glycine buffer (pH 2.2) containing 0.1 % SDS (W/V) and 1% TWEEN20. Membranes were then washed at room temperature with PBS (3x10 min) and PBST (2x5min). Blocking, primary (1:4,000) and secondary (1:5,000) antibody staining was conducted as above. Primary rabbit anti-β-actin antibodies were obtained from Cell Signaling (4967S, lot 9) and secondary HRP-conjugated goat-anti-rabbit antibodies were from the same company (7074S, lot 27). […]

Data set [3] concerns Vero E6 cells. Briefly: MTS assay, growth inhibition and toxicity in non-infected Vero E6 cells. As to conditions: for Concentrations at which drug is cytotoxic: Vero E6, MTS. Type of data set: cell-based, African green monkey. As to the method:
(§1) Detailed methods are provided in Supplementary Information.
(§2) Vero E6 and BEC-hACE2 cells were grown to 70-80% density in their maintenance media and exposed to various concentrations of ipecac alkaloids (0.0125 – 200 µM) under standard culture conditions for 48-72 h and 24 h, respectively. Controls with varying amounts of DMSO and no DMSO were included also. Vero E6 cells were incubated with drugs in 2% FBS-EMEM, while BEC-HACE2 cells were grown and treated in complete PCS-300-03 medium with supplements. Similar treatments were also conducted using fully confluent non-growing BEC-hACE2 cells. At the end of the exposure period, MTS reagent (Promega G3580) was added at 1/5th of the medium volume and color was allowed to develop by incubation of the plates for an hour in a cell culture incubator. To stop reactions, SDS was added to a final concentration of 2% and optical density of samples was measured at 450 or 490 nm, depending on the model of spectrophotometer (PharmaciaBiotech, NJ, USA; UV spectrophotometer, model Ultrospec2000) or plate reader (Molecular Devices, CA, USA; model Filter Max F5 Multi-mode microplate reader) available at the time of experiment.

The test system of data set [4] is BEC-hACE2 cells. Briefly: MTS assay, growth inhibition and toxicity in non-infected BEC-hACE2 cells. Type of data set: cell-based, human. The note with it: for MTS, TGI (beginning of the plateau): BEC-hACE2, 24 h. As to the method:
as §1, §2

The subject of data set [5] is SARS-CoV-2. Briefly: Antiviral activity against SARS-CoV-2 in BEC-hACE2 cells (RT-qPCR).
Where [6] appears, read: Vero C1008, read-out: IC50, host protein synthesis.
The mark [7] stands for this setting: Vero C1008, Vero E6 cells, 1 h exposure, puromycin labeling, read-out: 50 % inhibitory activities, protein synthesis.
Setting [8] is: Severe acute respiratory syndrome coronavirus 2, read-out: Anti-SARS-CoV2, IC50, subconfluent BEC-hACE2, drug after viral absorption, 24 hpi.
[9] abbreviates: Severe acute respiratory syndrome coronavirus 2, read-out: Anti-SARS-CoV-2 IC50, BEC-hACE2, 24 hpi.

“And” between values parts separate entries of the source, which are not always exact repeats. Identical values can stand only once. Counter-ions that a name gives are not always drawn. Like-named read-outs stand apart in the source and are kept apart here.

Turning to `CC[C@H]1CN2CCc3cc(OC)c(OC)cc3[C@@H]2C[C@@H]1C[C@H]1NCCc2cc(OC)c(OC)cc21` [Emetine, 2H-Benzoaquinolizine, 3-ethyl-1,3,4,6,7,11b-hexahydro-9,10-dimethoxy-2-(1R)-1,2,3,4-tetrahydro-6,7-dimethoxy-1-isoquinolinylmethyl-, dihydrochloride, (2S,3R,11bS)-, reference compound], the IC50 in data set [1] (luciferase mRNA, 30 °C, 90 min) was 1200 nM and 1210 nM; in data set [2] (setting [6]), 150 to 170 nM; in data set [2] (setting [7]) it was around 110 nM; in data set [5] (setting [8]) it was 52 ± 3 nM; in data set [5] (setting [9]), around 52 nM; in data set [5] (read-out: Anti-SARS-CoV-2 IC50, BEC-hACE2, 24 hpi) it was 50 to 100 nM. For the same compound, the “Protein synthesis,%” value is recorded as 20% in data set [2] (Vero E6, 0.01 μM, listed as EMT); 50% in data set [2] (Vero E6, 0.03 μM); 50% in data set [2] (Vero E6, 0.1 μM); “terminating all translation activity” in data set [2] (Vero E6, 1 μM); 100% in data set [2] (Vero E6, 1 μM, listed as EMT). In addition, in data set [2] (Vero E6, > 10 μM), the “Protein synthesis, puromycilation signal” value is “signal increase”. In data set [2] (Vero E6 cells), the “Concentration above which inhibition of puromycilation is not sustained” value is above 10 µM. Further, the “Concentrations at which drug is cytotoxic” value in data set [3] is given as “higher than 10 μM”. In data set [4], the “MTS, TGI (beginning of the plateau)” value worked out at 0.125 µM. For the same compound, the “MTS, nature of the effect” value in data set [4] (BEC-hACE2, at 100 μM) was “cytostatic”. In data set [5] (Severe acute respiratory syndrome coronavirus 2, read-out: Inhibition of viral propagation), the inhibition at 0.5 µM was at least 90%.
`CC[C@H]1CN2CCc3cc(OC)c(OC)cc3[C@@H]2C[C@@H]1C[C@@H]1NCCc2cc(OC)c(OC)cc21.Cl.Cl` [Isoemetine, 2H-Benzoaquinolizine, 3-ethyl-1,3,4,6,7,11b-hexahydro-9,10-dimethoxy-2-(1S)-1,2,3,4-tetrahydro-6,7-dimethoxy-1-isoquinolinylmethyl-, dihydrochloride, (2S,3R,11bS)-]: the “Inhibitory effects on translation in rabbit reticulocyte lysate” value in data set [1] (concentration range 0.1 - 100 μM) is “no inhibitory effects”. Further, the “IC50, protein synthesis inhibition in rabbit reticulocyte lysate” value in data set [1] (luciferase mRNA, 30 °C, 90 min) was “Not active”. Also, in data set [2] (Vero E6, 0.1 μM), the “Protein synthesis,%” value is on record as 0%. Further, the “Protein synthesis, puromycilation signal” value in data set [2] (Vero E6, >1 μM) is “signal increase”. Moreover, the “Concentration above which inhibition of puromycilation is not sustained” value in data set [2] (Vero E6 cells) was above 1 µM. The CC50 in data set [3] (MTS, 72 h, read-out: Fifty percent effect (CC50) in non-infected Vero E6) amounted to 114 ± 13.1 µM; in data set [4] (sub-confluent BEC-hACE2, 24 h, read-out: MTS, CC50 (50 % effect)), 100 µM. Besides, the “MTS, nature of the effect” value in data set [4] (BEC-hACE2, at 100 μM) is recorded as “cytotoxic”. Moreover, the “Concentrations at which cells are affected (MTS)” value in data set [4] (sub-confluent BEC-hACE2, 24 h) is reported as “above 50 μM”. Besides, the IC50 in data set [5] (read-out: Anti-SARS-CoV2, IC50, subconfluent BEC-hACE2, drug after viral absorption, 24 hpi) came out at 16500 nM; in data set [5] (read-out: Anti-SARS-CoV2, IC50, subconfluent BEC-hACE2, drug after viral absorption, 24 hpi, listed as ISOEMT), 16500 ± 6240 nM.
`CCC1=C(C[C@H]2NCCc3cc(OC)c(OC)cc32)C[C@H]2c3cc(OC)c(OC)cc3CCN2C1` [DHE4, 4H-Benzo[a]quinolizine, 3-ethyl-1,6,7,11b-tetrahydro-9,10-dimethoxy-2-[[(1R)-1,2,3,4-tetrahydro-6,7-dimethoxy-1-isoquinolinyl]methyl]-, (11bS)-]: the IC50 in data set [1] (luciferase mRNA, 30 °C, 90 min) is 1300 nM and 1330 nM; in data set [2] (setting [6]), 150 to 170 nM; in data set [2] (setting [7]) it was around 210 nM; in data set [5] (setting [8]), 88 ± 23 nM; in data set [5] (setting [9]), 50 to 100 nM. Besides, the “Protein synthesis,%” value was determined as 15% in data set [2] (Vero E6, 0.01 μM) and 20% in data set [2] (Vero E6, 0.1 μM). Also, the “Protein synthesis, puromycilation signal” value in data set [2] (Vero E6, > 10 μM) is “signal increase”. The “Concentration above which inhibition of puromycilation is not sustained” value in data set [2] (Vero E6 cells) is above 10 µM. Moreover, the “Concentrations at which drug is cytotoxic” value in data set [3] is “higher than 10 μM”. Further, the “MTS, TGI (beginning of the plateau)” value in data set [4] stood at 0.125 µM. In data set [4] (BEC-hACE2, at 100 μM), the “MTS, decrease” value is 40%. The “MTS, nature of the effect” value in data set [4] (BEC-hACE2, at 100 μM) was “cytostatic”. Also, in data set [4] (sub-confluent BEC-hACE2, 24 h), the “MTS, CC50 (50 % effect)” value was “Effect not reached”. In addition, the “SI from MTS CC50 (50 % effect)” value in data set [5] (SARS-CoV-2, BEC-hACE2) is on record as “exceed 1500”.
